Laboratory results published in PMC7762659, “Phenolic Compounds from Polygonum chinense Induce Growth Inhibition and Apoptosis of Cervical Cancer SiHa Cells” (BioMed Research International, 2020).
pIC50: −log10 of the molar value. Read-outs that look alike come from different tables or passages of the source.

Columns and labels:
Format in all cases: cell-based, human
HcerEpic cells = assay: CCK8 antiproliferative activity assay on HcerEpic cells; conditions: 48 h, read-out: IC50, antiproliferation activity on HcerEpic cells (PC phenolics)
Procedure: (§1) The SiHa cell line was obtained from American Type Culture Collection (ATCC, Manassas, Virginia, VA, USA); HcerEpic cell was obtained from ScienCell (San Diego, Los Angeles, LA, USA). The cells were maintained in medium RP1640 containing 10% FBS, high glucose DMEM cultured with 100 U/ml of penicillin, and 100 U/ml of streptomycin, in a humidified CO2 (5%) incubator at 37°C. All reagents for cell cultures were purchased from Invitrogen (Carlsbad, California, CA, USA).
(§2) SiHa and HcerEpic cells were cultured in 96-well plates at approximately 7.5 × 10^3 cells per well and incubated for 12 h. Then, cells were treated with different concentrations of PC extracts (5, 10, 25, 50, and 100 μg/mL) or seven PC PHE (10, 20, 40, 60, and 80 μM). After incubation of 48 h, then 10 μL CCK8 reagent added per hole, placed in the incubator 2 h, incubation, enzyme standard instrument determination at 450 nm absorbance (OD value).
(§3) Cell vitality∗(%) = [A (dosing) − A (blank)]/[A dosing (O) − A (blank)] × 100%A (dosing): OD values of Wells with cell, CCK8 solution, and drug solution.
(§4) A (blank): OD values of Wells with medium, CCK8 solution, and no cells.
(§5) A (0 dosing): OD values of Wells with cell and CCK8 solution but no drug solution.

SiHa cells = assay: CCK8 antiproliferative activity assay on SiHa cells; conditions: 48 h, read-out: IC50, antiproliferation activity on SiHa cells (PC phenolics)
Procedure: as §1, §2, §3, §4, §5

[1] = test system: P53, Bax, Bcl-2, caspase 3, caspase 9 in SiHa cells; assay: Western blot of apoptosis-related proteins in SiHa cells; conditions: SiHa cells, 25, 50, 75 μM, 48 h, compared with control
Procedure: We followed the Western blot methods of Tu et al. 2020 [24]. […] The culture was terminated after 48 h. Then, cells were collected and proteins were extracted with RIPA lysis buffer containing a protease inhibitor cocktail. The total protein concentrations were measured using the Bradford method, and the normalized protein samples were added to 4 sample buffer, then boiled and denatured. Equal amounts of proteins were separated by SDS-PAGE and then transferred to nitrocellulose membranes. The membranes were blocked and then probed with indicated primary antibodies, respectively, with anti-P53 (1 : 1000), anti-Bax (1 : 1000), anti-Bcl-2 (1 : 1000), anti-caspase 3 (1 : 2500), anti-caspase 9 (1 : 2500), anti-cleaved-caspase 3 (1 : 1000), and anti-cleaved-caspase 9 (1 : 1000), at 4°C overnight. Antibodies were purchased from Abcam (Santa Cruz, California, CA, USA); others were from Cell Signaling Technology (Cell Signaling, Danvers, Massachusetts, MA, USA). All antibodies were diluted with 5% BSA in TBST buffer. The blots were rinsed and then incubated with secondary antibodies (anti-mouse antibody or anti-rabbit antibody, 1 : 5000, Cell Signaling Technology). Reactive bands were visualized using ECL (Thermo Fisher Scientific; Waltham, MA, USA) and then calibrated by ChemiDoc Imaging System (Bio-Rad; Hercules, California, CA, USA).

Molecule	pIC50 (HcerEpic cells)	pIC50 (SiHa cells)	pIC50 (HcerEpic cells; Homo sapiens)	pIC50 (SiHa cells; Homo sapiens, SiHa)	expression level of Bcl-2 protein [1]	expression level of Caspase3 protein [1]	expression level of Csapase9 protein [1]	expression level of P53 protein [1]
O=C1CC(C(=O)O)c2c1oc(=O)c1cc(O)c(O)c(O)c21 (stereo not shown) [Brevifolin carboxylic acid]	< 4.00	< 4.00	–	–	–	–	–	–
O=C(O)C[C@@H]1C(=O)O[C@H]2[C@@H]3OC(=O)c4cc(O)c(O)c(O)c4-c4c(cc(O)c(O)c4O)C(=O)OC[C@H]2O[C@@H](OC(=O)c2cc(O)c(O)c(O)c2)[C@@H]3OC(=O)c2cc(O)c(O)c3c2[C@H]1[C@H](O)C(=O)O3 [Chebulagic acid]	–	–	< 4.00	< 4.00	–	–	–	–
O=C(/C=C/c1ccc(O)c(O)c1)O[C@@H]1C[C@](O)(C(=O)O)C[C@@H](O)[C@H]1O [Chlorogenic acid]	–	–	< 4.00	< 4.00	–	–	–	–
O=C(O[C@@H]1O[C@@H]2COC(=O)c3cc(O)c(O)c(O)c3-c3c(cc(O)c(O)c3O)C(=O)O[C@H]([C@H]1O)[C@@H]2O)c1cc(O)c(O)c(O)c1 [Corilagin]	–	–	< 4.00	4.54	downregulated	significantly upregulated	significantly upregulated	significantly upregulated
O=c1oc2c(O)c(O)cc3c(=O)oc4c(O)c(O)cc1c4c23 [Ellagic acid]	–	–	< 4.00	4.67	downregulated	significantly upregulated	significantly upregulated	significantly upregulated
O=C(O)c1cc(O)c(O)c(O)c1 [Gallic acid]	–	–	< 4.00	< 4.00	–	–	–	–
Citrate acid	< 4.00	< 4.00	–	–	–	–	–	–
